Where two headings read alike, the source gives them in different places.
Assay: Solubility test: apparent solubility in test solutions, HPLC-UV
Assay type: physicochemical
Settings: for solubility: aqueous buffer, thermodynamic from solid
Method: Several milligram of each compound to be tested was precisely weighed, and 0.1 to 1.3 mL of the following test solutions were each added to the compound. The resulting mixture was stirred for several tens of seconds to several minutes for dispersing or dissolving the compound. Then, the supernatant was collected by centrifugation or filtration through a membrane. The concentration of the compound in the supernatant was quantitatively measured by an HPLC-UV method as an apparent solubility of the compound to each test solution.
pH 5: Diluted Mcllvaine buffer solution (KANTO Chemical Co. Inc.)
pH 7: GIBCO™ Dulbecco's phosphate-buffered saline (Invitrogen Corporation)

[1] = pH 7: Dulbecco's phosphate-buffered saline, read-out: Solubility at pH 7
[2] = diluted McIlvaine buffer solution, pH 5: Diluted Mcllvaine buffer solution, read-out: Solubility at pH 5

Molecule: COc1cc(/C=C2\O[C@@H](C)[C@H]3CC[C@@H](c4cc(F)c(F)c(F)c4)N3C2=O)ccc1-n1cc(C)[n+](COP(=O)(O)O)c1.O=C([O-])C(F)(F)F [Example 16, 3-{2-methoxy-4-[(1S,6S,8aR)-1-methyl-4-oxo-6-(3,4,5-trifluorophenyl)tetrahydropyrrolo[2,1-c][1,4]oxazine-(3Z)-ylidenemethyl]phenyl}-5-methyl-1-phosphonooxymethyl-3H-imidazole-1-ium trifluoroacetate]
- solubility [1]: 1120 µg/mL
- solubility [2]: 1150 µg/mL

Molecule: 1-{4-{(E)-1-{[(S)-1-(4-fluorophenyl)ethyl]-2-oxopiperidin-3-ylidene}methyl}-2-methoxyphenyl}-4-methyl-1H-imidazol-3-iomethyl monohydrogenphosphate [Example 2]
- Solubility at pH 5 (pH 5: Diluted Mcllvaine buffer solution): >10 mg/mL
- Solubility at pH 7 (pH 7: Dulbecco's phosphate-buffered saline): >10 mg/mL

Molecule: COc1cc(/C=C2\O[C@@H](C)[C@H]3COC[C@@H](c4ccc(F)c(F)c4)N3C2=O)ccc1-n1cc(C)[n+](COP(=O)(O)O)c1.O=C([O-])C(F)(F)F [Example 17, 3-{4-[(1S,6R,9aR)-6-(3,4-difluorophenyl)-1-methyl-4-oxotetrahydro[1,4]oxazino[3,4-c][1,4]oxazine-(3Z)-ylidenemethyl]-2-methoxyphenyl}-5-methyl-1-phosphonooxymethyl-3H-imidazole-1-ium trifluoroacetate]
- solubility [1]: 7550 µg/mL
- solubility [2]: > 10000 µg/mL

Molecule: COc1cc(/C=C2\O[C@@H](C)CN([C@H](c3cc(F)c(F)c(F)c3)[C@@H](C)O)C2=O)ccc1-n1cc(C)[n+](COP(=O)(O)O)c1.O=C([O-])C(F)(F)F [Example 12, 3-{4-{(S)-4-[(1R,2R)-2-hydroxy-1-(3,4,5-trifluorophenyl)propyl]-6-methyl-3-oxomorpholin-(2Z)-ylidenemethyl}-2-methoxyphenyl}-5-methyl-1-(phosphonooxymethyl)-3H-imidazol-1-ium trifluoroacetate]
- solubility [1]: 1830 µg/mL
- solubility [2]: 3440 µg/mL

Molecule: Cc1cn(-c2ccc(/C=C3\O[C@@H](C)CN([C@H](c4cc(F)c(F)c(F)c4)[C@@H](C)O)C3=O)cc2F)c[n+]1COP(=O)(O)O.O=C([O-])C(F)(F)F [Example 5, 3-[2-fluoro-4-[(S)-4-[(1R,2R)-2-hydroxy-1-(3,4,5-trifluorophenyl)propyl]-6-methyl-3-oxomorpholin-(2Z)-ylidenemethyl]phenyl]-5-methyl-1-phosphonooxymethyl-3H-imidazol-1-ium trifluoroacetate]
- solubility [1]: 460 µg/mL
- solubility [2]: 320 µg/mL

Molecule: COc1cc(/C=C2\CC[C@H]3COC[C@@H](c4cc(F)c(F)c(F)c4)N3C2=O)ccc1-n1cc(C)[n+](COP(=O)(O)O)c1.O=C([O-])C(F)(F)F [Example 11, 3-{2-methoxy-4-[(4R,9aS)-6-oxo-4-(3,4,5-trifluorophenyl)hexahydropyrido[2,1-c][1,4]oxazin-(7E)-ylidenemethyl]phenyl}-5-methyl-1-phosphonooxymethyl-3H-imidazol-1-ium trifluoroacetate]
- solubility [1]: 8110 µg/mL
- solubility [2]: 7680 µg/mL

Molecule: COc1cc(/C=C2\O[C@@H](C)[C@H]3COC[C@@H](c4ccc(Cl)cc4)N3C2=O)ccc1-n1cc(C)[n+](COP(=O)(O)O)c1.O=C([O-])C(F)(F)F [Example 15, 3-{4-[(1S,6R,9aR)-6-(4-chlorophenyl)-1-methyl-4-oxotetrahydro[1,4]oxazino[3,4-c][1,4]oxazine-(3Z)-ylidenemethyl]-2-methoxyphenyl}-5-methyl-1-phosphonooxymethyl-3H-imidazole-1-ium trifluoroacetate]
- solubility [1]: > 10000 µg/mL
- solubility [2]: > 10000 µg/mL

Molecule: COc1cc(/C=C2\CC[C@H]3CC[C@@H](c4ccc(Cl)cc4)N3C2=O)ccc1-n1cc(C)[n+](COP(=O)(O)O)c1.O=C([O-])C(F)(F)F [Example 8, 3-{4-[(3S,8aS)-3-(4-chlorophenyl)-5-oxohexahydroindolizin-(6E)-ylidenemethyl]-2-methoxyphenyl}-5-methyl-1-(phosphonooxymethyl)-3H-imidazol-1-ium trifluoroacetate]
- solubility [1]: 1690 µg/mL
- solubility [2]: 960 µg/mL

Molecule: COc1cc(/C=C2\OC(C)(C)[C@H]3COC[C@@H](c4cc(F)c(F)c(F)c4)N3C2=O)ccc1-n1cc(C)[n+](COP(=O)(O)O)c1.O=C([O-])C(F)(F)F [Example 18, 3-{4-[(6R,9aR)-1,1-dimethyl-4-oxo-6-(3,4,5-trifluorophenyl)tetrahydro[1,4]oxazino[3,4-c][1,4]oxazine-(3Z)-ylidenemethyl]-2-methoxyphenyl}-5-methyl-1-phosphonooxymethyl-3H-imidazole-1-ium trifluoroacetate]
- solubility [1]: > 10000 µg/mL
- solubility [2]: > 10000 µg/mL

Molecule: COc1cc(/C=C2\CC[C@@H]3CCC[C@@H](c4cc(F)c(F)c(F)c4)N3C2=O)ccc1-n1cc(C)[n+](COP(=O)(O)O)c1.O=C([O-])C(F)(F)F [Example 10, 3-{2-methoxy-4-[(6S,9aS)-4-oxo-6-(3,4,5-trifluorophenyl)hexahydroquinolizin-(3E)-ylidenemethyl]phenyl}-5-methyl-1-(phosphonooxymethyl)-3H-imidazol-1-ium trifluoroacetate]
- solubility [1]: 9760 µg/mL
- solubility [2]: 9590 µg/mL

Molecule: COc1cc(/C=C2\CC[C@H]3CC[C@@H](c4cc(F)c(F)c(F)c4)N3C2=O)ccc1-n1cc(C)[n+](COP(=O)(O)O)c1.O=C([O-])C(F)(F)F [Example 6, 3-{2-methoxy-4-[(3S,8aS)-5-oxo-3-(3,4,5-trifluorophenyl)hexahydroindolizin-(6E)-ylidenemethyl]phenyl}-5-methyl-1-phosphonooxymethyl-3H-imidazol-1-ium trifluoroacetate]
- solubility [1]: 8890 µg/mL
- solubility [2]: 9140 µg/mL

Molecule: COc1cc(/C=C2\CCCN([C@H](c3cc(F)c(F)c(F)c3)[C@@H](C)O)C2=O)ccc1-n1cc(C)[n+](COP(=O)(O)O)c1.O=C([O-])C(F)(F)F [Example 4, 3-{4-{1-[(1R,2R)-2-hydroxy-1-(3,4,5-trifluorophenyl)propyl]-2-oxopiperidin-(3E)-ylidenemethyl}-2-methoxyphenyl}-5-methyl-1-(phosphonooxymethyl)-3H-imidazol-1-ium trifluoroacetate]
- solubility [1]: > 10000 µg/mL
- solubility [2]: > 10000 µg/mL

Molecule: Cc1cn(-c2ccc(/C=C3\O[C@@H](C)CN([C@H](c4ccc(F)c(F)c4)[C@@H](C)O)C3=O)cc2F)c[n+]1COP(=O)(O)O.O=C([O-])C(F)(F)F [Example 9, 3-{4-{(S)-4-[(1R,2R)-1-(3,4-difluorophenyl)-2-hydroxypropyl]-6-methyl-3-oxomorpholin-(2Z)-ylidenemethyl}-2-fluorophenyl}-5-methyl-1-phosphonooxymethyl-3H-imidazol-1-ium trifluoroacetate]
- solubility [1]: 4720 µg/mL
- solubility [2]: 3450 µg/mL

Molecule: COc1cc(/C=C2\O[C@@H](C)[C@H]3COC[C@@H](c4cc(F)c(F)c(F)c4)N3C2=O)ccc1-n1cc(C)[n+](COP(=O)(O)O)c1.O=C([O-])C(F)(F)F [Example 14, 3-{2-methoxy-4-[(1S,6R,9aR)-1-methyl-4-oxo-6-(3,4,5-trifluorophenyl)tetrahydro-[1,4]oxazino[3,4-c][1,4]oxazine-(3Z)-ylidenemethyl]phenyl}-5-methyl-1-phosphonooxymethyl-3H-imidazole-1-ium trifluoroacetate]
- solubility [1]: > 10000 µg/mL
- solubility [2]: > 10000 µg/mL

Molecule: COc1cc(/C=C2\CC[C@H]3CCC[C@@H](c4ccc(Cl)cc4)N3C2=O)ccc1-n1cc(C)[n+](COP(=O)(O)O)c1.O=C([O-])C(F)(F)F [Example 13, 3-{4-[(6S,9aR)-6-(4-chlorophenyl)-4-oxohexahydroquinolizin-(3E)-ylidenemethyl]-2-methoxyphenyl}-5-methyl-1-phosphonooxymethyl-3H-imidazol-1-ium trifluoroacetate]
- solubility [1]: 9150 µg/mL
- solubility [2]: 9330 µg/mL

Molecule: COc1cc(/C=C2\CCCN([C@@H](C)c3ccc(F)cc3)C2=O)ccc1-n1cc(C)[n+](COC(C)=O)c1.[I-] [Example 3, 1-acetoxymethyl-3-[4-{1-[(S)-1-(4-fluorophenyl)ethyl]-2-oxopiperidin-(3E)-ylidenemethyl]-2-methoxyphenyl}-5-methyl-3H-imidazol-1-ium iodide]
- solubility [1]: 1120 µg/mL
- solubility [2]: 1240 µg/mL

From patent publication US7737141B2, “Prodrug of cinnamide compound” (Eisai R&D Management Co., Ltd., priority 2006, dated 2010)
